# US10774064B2 (Cadent Therapeutics, Inc., priority 2016, dated 2020)
# Target: T1, small-conductance Ca2+-activated K+ channels (SK channels, subtype 2) (Homo sapiens, UniProt Q9H2S1)
# T1 construct: expressed in transfected cells; host or cells: HEK293
# Assay: whole-cell patch-clamp of ionic current through SK2 channels in HEK293 cells (SC100)
# Type: cell-based
# Details: concentration that increases the basal current by 100%; HEK293 cells expressing SK2 channels
# Summary of the method: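 Whole-cell patch-clamp recording of current in HEK293 cells expressing SK2 channels. SC100 is the compound concentration that increases basal current by 100%.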
row,SC100,Structure (SMILES)
1,++ (++ means 200 nM-1000 nM),"Cc1cc(NC2CCC(F)(F)CC2)nc(-n2nc(C(F)F)cc2C)n1 [Compound 237, N-(4,4-difluorocyclohexyl)-2-(3-(difluoromethyl)-5-methyl-1H-pyrazol-1-yl)-6-methylpyrimidin-4-amine]"
2,++ (++ means 200 nM-1000 nM),"Cc1cc(NC2CCC(F)(F)CC2)nc(-n2ccc(C(F)(F)F)n2)n1 [Compound 200, N-(4,4-difluorocyclohexyl)-6-methyl-2-(3-(trifluoromethyl)-1H-pyrazol-1-yl)pyrimidin-4-amine]"
3,+ (+ means >1 uM),COCc1cc(NC2CCC(F)(F)CC2)nc(-n2nc(C)cc2C)n1 [Compound 193]
4,++ (++ means 200 nM-1000 nM),"FC1(F)CCC(Nc2cc(N3CCOCC3)nc(-c3nc(C(F)(F)F)cs3)n2)CC1 [Compound 332, N-(4,4-difluorocyclohexyl)-6-morpholino-2-(4-(trifluoromethyl)thiazol-2-yl)pyrimidin-4-amine]"
5,++ (++ means 200 nM-1000 nM),"Cc1cc(C)n(-c2nc(NC3CCC(F)(F)CC3)cc(C3CC3)n2)n1 [Compound 186, 6-cyclopropyl-N-(4,4-difluorocyclohexyl)-2-(3,5-dimethyl-1H-pyrazol-1-yl)pyrimidin-4-amine]"
6,+ (+ means >1 uM),"Cc1cc(C)n(-c2nc(NC3CCC(F)(F)CC3)cc(NC(C(N)=O)C(C)C)n2)n1 (stereo in doubt) [Compound 164, (R)-2-((6-((4,4-difluorocyclohexyl)amino)-2-(3,5-dimethyl-1H-pyrazol-1-yl)pyrimidin-4-yl)amino)-3-methylbutanamide]"
7,++ (++ means 200 nM-1000 nM),"Cc1cc(C)n(-c2cc(NCc3cnn(C)n3)cc(NC3CCC(F)(F)CC3)n2)n1 [Compound 248, N2-(4,4-difluorocyclohexyl)-6-(3,5-dimethyl-1H-pyrazol-1-yl)-N4-((2-methyl-2H-1,2,3-triazol-4-yl)methyl)pyridine-2,4-diamine]"
8,+ (+ means >1 uM),"Cc1cc(C)n(-c2cc(OCc3ncn(C)n3)cc(NC3CCC(F)(F)CC3)n2)n1 [Compound 275, N-(4,4-difluorocyclohexyl)-6-(3,5-dimethyl-1h-pyrazol-1-yl)-4-((1-methyl-1H-1,2,4-triazol-3-yl)methoxy)pyridin-2-amine]"
9,++ (++ means 200 nM-1000 nM),"Cc1csc(-c2nc(NC3CCC(F)(F)CC3)cc(C(C)O)n2)n1 (racemic) [Compound 362, 1-(6-((4,4-difluorocyclohexyl)amino)-2-(4-methylthiazol-2-yl)pyrimidin-4-yl)ethan-1-ol]"
10,+ (+ means >1 uM),"Cc1cc(C)n(-c2nc(CN(C)C)cc(NC3CCC(F)(F)CC3)n2)n1 [Compound 177, N-(4,4-difluorocyclohexyl)-2-(3,5-dimethyl-1H-pyrazol-1-yl)-6-((dimethylamino)methyl)pyrimidin-4-amine]"
11,++ (++ means 200 nM-1000 nM),"COC(=O)N1CCC(Oc2cc(NC3CCC(F)(F)CC3)nc(-n3ccc(CF)n3)n2)C1 (stereo not shown) [Compound 297, methyl 3-((6-((4,4-difluorocyclohexyl)amino)-2-(3-(fluoromethyl)-1H-pyrazol-1-yl)pyrimidin-4-yl)oxy)pyrrolidine-1-carboxylate]"

# Same assay, conditions: whole-cell patch-clamp, HEK293 cells expressing SK2 channels; concentration that increases the basal current by 100%
row,Structure (SMILES),SC100 (μM)
1,"Cc1cc(NC2CCC(F)(F)CC2)nc(-n2ccc(C3(N)CC3)n2)n1 [IN11218-026-P1, 2-(3-(1-aminocyclopropyl)-1H-pyrazol-1-yl)-N-(4,4-difluorocyclohexyl)-6-methylpyrimidin-4-amine hydrogen chloride]",+ (+ means >1 uM)
2,Cc1csc(-c2nc(NC3CCC(F)(F)CC3)cc(N3CCC(N(C)C)CC3)n2)n1 [IN10881-020.P1],+++ (+++ means <200 nM)
3,CC(=O)N(C)Cc1cc(NC2CCC(F)(F)CC2)nc(-c2nc(C)cs2)c1 [IN11133-068-P1],++ (++ means 200 nM-1000 nM)
4,"Cc1cc(NC2CCC(F)(F)CC2)nc(-n2ccc(OC(C)C)n2)n1 [IN11133-094-P1, N-(4,4-difluorocyclohexyl)-2-(3-isopropoxy-1H-pyrazol-1-yl)-6-methylpyrimidin-4-amine]",+ (+ means >1 uM)
5,Cc1csc(-c2cc(N3CCN(C4COC4)CC3)cc(NC3CCC(F)(F)CC3)n2)n1 [NSSy5819],++ (++ means 200 nM-1000 nM)
6,"Cc1cc(C)n(-c2nc(NC3CCC(F)(F)CC3)cc(C(C)N3CCOCC3)n2)n1 (stereo not shown) [IN10987-055-P1, N-(4,4-difluorocyclohexyl)-2-(3,5-dimethyl-1H-pyrazol-1-yl)-6-(1-morpholinoethyl)pyrimidin-4-amine]",+ (+ means >1 uM)
7,"Cc1cc(NC2CCC(F)(F)CC2)nc(Cn2nccc2C)n1 [IN11273-015-P2, N-(4,4-difluorocyclohexyl)-6-methyl-2-((5-methyl-1H-pyrazol-1-yl)methyl)pyrimidin-4-amine]",+ (+ means >1 uM)
8,Cc1cc(C)n(-c2nc(N[C@@H]3CCCC[C@H]3F)cc(N3CCOCC3)n2)n1 [IN11146-016-P1],+ (+ means >1 uM)
9,Cc1ccn(-c2nc(C(C)O)cc(N3CCCC4CCCCC43)n2)n1 (stereo not shown) [IN10881-054-P1],+ (+ means >1 uM)
10,COCCOc1cc(NC2CCC(F)(F)CC2)nc(-n2ccc(C)n2)n1 [IN10966-093-P1],+ (+ means >1 uM)
11,Cc1ccn(-c2nc(NC(C)(C)C)cc(C(C)O)n2)n1 (stereo not shown) [IN10880-065-P1],+ (+ means >1 uM)
12,CC(=O)N(C)Cc1cc(NC2CCC(F)(F)CC2)nc(-c2nc(C)cs2)n1 [IN11059-090-P1],++ (++ means 200 nM-1000 nM)
13,"CNc1cc(NC2CCC(F)(F)CC2)nc(-c2nc(C)cs2)c1 [IN11063-096-P1, N2-(4,4-difluorocyclohexyl)-N4-methyl-6-(4-methylthiazol-2-yl)pyridine-2,4-diamine]",++ (++ means 200 nM-1000 nM)
14,"FC1(F)CCC(Nc2cc(N3CCOCC3)nc(-c3ccc[nH]3)n2)CC1 [IN11030-023-P1, N-(4,4-difluorocyclohexyl)-6-morpholino-2-(1H-pyrrol-2-yl)pyrimidin-4-amine]",+ (+ means >1 uM)
15,"Cc1csc(-c2cc([S+](C)[O-])cc(NC3CCC(F)(F)CC3)n2)n1 (stereo not shown) [IN11147-031-P1, N-(4,4-difluorocyclohexyl)-4-(methylsulfinyl)-6-(4-methylthiazol-2-yl)pyridin-2-amine]",++ (++ means 200 nM-1000 nM)
16,CSc1cc(NC2CCC(F)(F)CC2)nc(-c2nc(C)cs2)n1 [IN11054-039-P1],++ (++ means 200 nM-1000 nM)
17,"Cc1cc(C)n(-c2nc(OC3CCC(F)(F)CC3)cc(N3CCOCC3)n2)n1 [IN10991-021-P1, 4-(6-((4,4-difluorocyclohexyl)oxy)-2-(3,5-dimethyl-1H-pyrazol-1-yl)pyrimidin-4-yl)morpholine]",+ (+ means >1 uM)
18,OCc1cc(NC2CCC(F)(F)CC2)nc(-n2ccc(C3CC3)n2)c1 [IN11111-092-P1],++ (++ means 200 nM-1000 nM)
19,Cc1csc(-c2cc(N3CCOCC3)cc(NC3CCC(F)(F)CC3)n2)n1 [NSSy5646],++ (++ means 200 nM-1000 nM)

# Next, values leading:
row,SC100 (μM),Structure (SMILES)
1,++ (++ means 200 nM-1000 nM),"COC(=O)N1CC(Oc2cc(NC3CC=C(C)CC3)nc(-c3nc(C)cs3)n2)C1 (stereo not shown) [NSSy5854, methyl 3-((6-((4-methylcyclohex-3-en-1-yl)amino)-2-(4-methylthiazol-2-yl)pyrimidin-4-yl)oxy)azetidine-1-carboxylate]"
2,++ (++ means 200 nM-1000 nM),"Cc1csc(-c2cc(CO)cc(NC3CCC(F)(F)CC3)n2)n1 [NSSy6730, (2-((4,4-difluorocyclohexyl)amino)-6-(4-methylthiazol-2-yl)pyridin-4-yl) methanol]"
3,+ (+ means >1 uM),Cc1cc(C)n(-c2cc(N3C[C@@H]4C[C@H]3CO4)nc(NC3CCC(F)(F)CC3)n2)n1 [NSSy6639]
4,++ (++ means 200 nM-1000 nM),"COC(=O)N1CC(Oc2cc(NC3CC=C(C)CC3)nc(-c3nc(C)cs3)c2)C1 (stereo not shown) [NSSy5980, methyl 3-((2-((4-methylcyclohex-3-en-1-yl)amino)-6-(4-methylthiazol-2-yl)pyridin-4-yl)oxy)azetidine-1-carboxylate]"
5,++ (++ means 200 nM-1000 nM),Cc1csc(-c2cc(N3CC(C)(O)C3)cc(NC3CCC(F)(F)CC3)n2)n1 [NSSy5687]
6,++ (++ means 200 nM-1000 nM),"CC(=O)N1CCN(c2cc(-c3nc(C)cs3)nc(NC3CCC(F)(F)CC3)n2)CC1 [NSSy6598, 1-(4-(2-((4,4-difluorocyclohexyl)amino)-6-(4-methylthiazol-2-yl)pyrimidin-4-yl)piperazin-1-yl)ethan-1-one]"
7,++ (++ means 200 nM-1000 nM),Cc1csc(-c2nc(NC3CCC(F)(F)CC3)cc(N3CCN(C4COC4)CC3)n2)n1 [NSSy5792]
8,+ (+ means >1 uM),Cc1ccn(-c2nc(NC3CCC(C(N)=O)CC3)cc(N3CCOCC3)n2)n1 (stereo not shown) [NSSy6541]
9,++ (++ means 200 nM-1000 nM),Cc1ccn(-c2cc(OCc3ncnn3C)cc(NC3CCC(F)(F)CC3)n2)n1 [NSSy5737]
10,+ (+ means >1 uM),"Cc1ccn(-c2cc(N3CCOCC3)cc([C@@H](O)c3ccc(F)cc3)n2)n1 [NSSy6513, (S)-(4-fluorophenyl)(6-(3-methyl-1H-pyrazol-1-yl)-4-morpholinopyridin-2-yl)methanol]"
11,+ (+ means >1 uM),COC(=O)N1CC(Oc2cc(NC3CCC(F)(F)CC3)nc(-c3csc(C)n3)n2)C1 [NSSy6132]
12,++ (++ means 200 nM-1000 nM),"Cc1cc(C)n(-c2cc(CO)cc(NC3CCC(F)(F)CC3)n2)n1 [NSSy6355, (2-((4,4-difluorocyclohexyl)amino)-6-(3,5-dimethyl-1H-pyrazol-1-yl)pyridin-4-yl) methanol]"
13,++ (++ means 200 nM-1000 nM),"Cc1cc(NC2CCC(F)(F)CC2)nc(-n2ccc(OC(F)F)n2)n1 [NSSy7059, N-(4,4-difluorocyclohexyl)-2-(3(difluoromethoxy)-1H-pyrazol-1-yl)-6-methylpyrimidin-4-amine]"
